Reference: PubChem BioAssay (NCI)
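Cells were grown in 96-well plates and exposed to each compound for 48 hours at five concentrations; endpoints were interpolated linearly between bracketing concentrations, or set to the highest concentration if not reached. GI50 is the concentration that inhibits growth by half. TGI: total growth inhibition.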

Columns and labels:
Test in all cases: NCI anticancer screen, dose series, 48 h
RXF 393 renal = tested on: RXF 393 renal
KM12 colon = tested on: KM12 colon
NCI-H23 lung = tested on: NCI-H23 lung
SW-620 colon = tested on: SW-620 colon
SK-MEL-28 melanoma = tested on: SK-MEL-28 melanoma
RPMI-8226 leukemia = tested on: RPMI-8226 leukemia
SK-MEL-2 melanoma = tested on: SK-MEL-2 melanoma
DU-145 prostate = tested on: DU-145 prostate
MCF7 breast = tested on: MCF7 breast
NCI/ADR-RES ovarian = tested on: NCI/ADR-RES ovarian

Row | SMILES | TGI (RXF 393 renal) [µM] | TGI (KM12 colon) [µM] | TGI (NCI-H23 lung) [µM] | TGI (SW-620 colon) [µM] | TGI (SK-MEL-28 melanoma) [µM] | TGI (RPMI-8226 leukemia) [µM] | TGI (SK-MEL-2 melanoma) [µM] | GI50 (DU-145 prostate) [µM] | TGI (DU-145 prostate) [µM] | GI50 (RXF 393 renal) [µM] | GI50 (KM12 colon) [µM] | GI50 (SK-MEL-2 melanoma) [µM] | GI50 (NCI-H23 lung) [µM] | GI50 (MCF7 breast) [µM] | TGI (MCF7 breast) [µM] | GI50 (NCI/ADR-RES ovarian) [µM] | TGI (NCI/ADR-RES ovarian) [µM] | GI50 (RPMI-8226 leukemia) [µM] | GI50 (SW-620 colon) [µM] | GI50 (SK-MEL-28 melanoma) [µM]
1 | Cc1cc(NS(=O)(=O)c2ccc(NC(=O)COC(=O)c3cccc4c(=O)c5ccccc5[nH]c34)cc2)no1 | > 100 | > 100 | > 100 | > 100 | > 100 | > 100 | – | – | – | – | – | – | – | – | – | – | – | – | – | –
2 | COC1=CC(=O)NCCN1 | > 100 | > 100 | > 100 | 50.9 | > 100 | – | > 100 | – | – | – | – | – | – | – | – | – | – | – | – | –
3 | Cc1cc(C)c(C(=O)/C=C/c2ccccc2)c(C)c1 | 34.5 | > 100 | 97.9 | 48.1 | – | 90.5 | 30.8 | – | – | – | – | – | – | – | – | – | – | – | – | –
4 | CC(C)(C)N=CN(C=C(c1ccccc1)c1ccccc1)C1CCCCC1 | 79.2 | > 100 | > 100 | > 100 | > 100 | – | > 100 | – | – | – | – | – | – | – | – | – | – | – | – | –
5 | CSc1nc(N)c2c(n1)NC(c1ccccc1)C1CCc3ccccc3C1=N2 (stereo not given) | > 100 | > 100 | > 100 | – | – | > 100 | 8.54 | > 100 | > 100 | 4.71 | 6.52 | 4.13 | 6.16 | 52 | > 100 | 5.58 | > 100 | 5.72 | – | –
6 | C#CC(=O)OCC#CCOC(=O)C#C | 36.9 | 44 | 55 | 40.6 | – | 34.3 | 40.1 | – | 90.3 | – | – | – | – | – | 44.2 | – | 76.5 | – | – | –
7 | Cc1cc(NS(=O)(=O)c2ccc(Nc3c4ccccc4nc4c(C(=O)Nc5ccc(S(=O)(=O)N=C(N)N)cc5)ccc(Cl)c34)cc2)no1 | 72.9 | > 100 | 92.6 | – | > 100 | > 100 | – | – | – | – | – | – | – | – | – | – | – | – | – | –
8 | Brc1ccc(C2SCc3nc4ccccc4n32)cc1 (stereo not given) | 20.9 | 21.1 | 15.3 | 29.2 | 16.7 | 28.6 | 30.4 | – | – | – | – | – | – | – | – | – | – | – | – | –
9 | Clc1ccc(C2=NOC3C4CCC(C4)C23)cc1 (stereo not given) | – | > 100 | > 100 | > 100 | > 100 | > 100 | > 100 | – | – | – | – | – | – | – | – | – | – | – | – | –
10 | COc1cc2ccc(CC(N)=O)cc2cc1OC | > 100 | > 100 | > 100 | > 100 | > 100 | > 100 | > 100 | – | – | – | – | – | – | – | – | – | – | – | – | –
11 | CCCCCCCCCCCCCCNCC(OCC)OCC | 22.9 | 22.2 | 30.5 | 31.9 | 32.5 | – | 28.6 | – | – | – | – | – | – | – | – | – | – | – | – | –
12 | Clc1cccc2c1OCC1C(c3ccccc3)=NN(c3ccccc3)C21 (stereo not given) | > 100 | > 100 | > 100 | > 100 | > 100 | > 100 | > 100 | – | – | – | – | – | – | – | – | – | – | – | – | –
13 | O=S(=O)(NCCO)c1cc[c]([Sb](=[O])([OH])[OH])cc1 | > 100 | > 100 | > 100 | > 100 | > 100 | > 100 | > 100 | > 100 | > 100 | > 100 | > 100 | > 100 | > 100 | – | – | > 100 | > 100 | > 100 | > 100 | > 100
